Experimental data published in patent publication US9000174B2, “4-phenylsulfonamidopiperidines as calcium channel blockers” (Purdue Pharma L.P., priority 2004, dated 2015).
Where a name gives a salt, the structure may show the parent alone.

How the values were obtained:
[1] = target: T1, L-type calcium channel (LTCC) (Rattus norvegicus, UniProt P22002); assay: FLIPR calcium mobilization (and/or electrophysiological) assay for L-type calcium channel; type: cell-based; conditions: calcium mobilization and/or electrophysiological in vitro assay; differentiated A7r5 cells, 90 mM KCl
T1 construct: differentiated A7r5 cells were trypsinized, then seeded on tissue culture treated 96-well clear-bottom black plates; endogenous in cells; host or cells: differentiated A7r5 cells (ATCC)
Procedure: A7r5 (ATCC) cells were maintained and routinely cultured in A7r5 growth medium consisting of Dulbecco's Modified Eagles Medium containing 10% FBS, 100 U/mL penicillin, 100 μg/mL streptomycin, 4 mM L-glutamine, and 0.15% sodium bicarbonate. 80-90% confluent flasks of cells were differentiated using the following differentiation medium: A7r5 Growth Medium plus 1 mM dibutyryl cyclic AMP (Sigma). Cells were differentiated for 8 days by replacing differentiation medium every 2-3 days.
One day prior to performing this assay, differentiated A7r5 cells were trypsinized, then seeded on tissue culture treated 96-well clear-bottom black plates (Becton Dickinson, Franklin Lakes, N.J.) at a dilution of 1:1 from a confluent T150 cm^2 flask. On the day of the assay, the plates were washed with A7r5 wash buffer (127 mM NaCl, 2 mM MgCl2, 700 μM NaH2PO4, 5 mM CaCl2, 5 mM NaHCO3, 8 mM HEPES, 10 mM glucose, pH 7.4), then loaded with 0.1 mL of A7r5 wash buffer containing Fluo-4 (3 μM final concentration, Molecular Probes, Eugene, Oreg.). After 1 hour, the cells were washed with 0.1 mL A7r5 wash buffer and resuspended in 0.05 mL A7r5 assay buffer that was composed of A7r5 wash buffer plus 50 μM valinomycin (Sigma). Plates were then transferred to a FLIPR^96 for assay. The FLIPR measured basal Fluo-4 fluorescence for 15 seconds, then added 0.05 mL of each compound tested diluted in A7r5 assay buffer at final concentrations ranging from about 846 pM to about 17 μM. Fluo-4 fluorescence was then measured for 5 minutes. 0.1 mL KCl agonist dissolved in A7r5 assay buffer was then added to the cells to produce a final concentration of 90 mM KCl, and fluorescence was measured for another 45 seconds. Data were collected over the entire time course and analyzed using Excel, Graph Pad Prism, or Activity Base software.

[2] = target: T2, N-type calcium channel (NTCC) (Homo sapiens, UniProt Q00975); assay: FLIPR calcium mobilization (and/or electrophysiological) assay for N-type calcium channel; type: cell-based; conditions: calcium mobilization and/or electrophysiological in vitro assay; differentiated IMR32 cells, 90 mM KCl, 5 μM nitrendipine
T2 construct: endogenous in cells; host or cells: differentiated IMR32 cells (ATCC)
T2 sequence (Q00975 whole entry): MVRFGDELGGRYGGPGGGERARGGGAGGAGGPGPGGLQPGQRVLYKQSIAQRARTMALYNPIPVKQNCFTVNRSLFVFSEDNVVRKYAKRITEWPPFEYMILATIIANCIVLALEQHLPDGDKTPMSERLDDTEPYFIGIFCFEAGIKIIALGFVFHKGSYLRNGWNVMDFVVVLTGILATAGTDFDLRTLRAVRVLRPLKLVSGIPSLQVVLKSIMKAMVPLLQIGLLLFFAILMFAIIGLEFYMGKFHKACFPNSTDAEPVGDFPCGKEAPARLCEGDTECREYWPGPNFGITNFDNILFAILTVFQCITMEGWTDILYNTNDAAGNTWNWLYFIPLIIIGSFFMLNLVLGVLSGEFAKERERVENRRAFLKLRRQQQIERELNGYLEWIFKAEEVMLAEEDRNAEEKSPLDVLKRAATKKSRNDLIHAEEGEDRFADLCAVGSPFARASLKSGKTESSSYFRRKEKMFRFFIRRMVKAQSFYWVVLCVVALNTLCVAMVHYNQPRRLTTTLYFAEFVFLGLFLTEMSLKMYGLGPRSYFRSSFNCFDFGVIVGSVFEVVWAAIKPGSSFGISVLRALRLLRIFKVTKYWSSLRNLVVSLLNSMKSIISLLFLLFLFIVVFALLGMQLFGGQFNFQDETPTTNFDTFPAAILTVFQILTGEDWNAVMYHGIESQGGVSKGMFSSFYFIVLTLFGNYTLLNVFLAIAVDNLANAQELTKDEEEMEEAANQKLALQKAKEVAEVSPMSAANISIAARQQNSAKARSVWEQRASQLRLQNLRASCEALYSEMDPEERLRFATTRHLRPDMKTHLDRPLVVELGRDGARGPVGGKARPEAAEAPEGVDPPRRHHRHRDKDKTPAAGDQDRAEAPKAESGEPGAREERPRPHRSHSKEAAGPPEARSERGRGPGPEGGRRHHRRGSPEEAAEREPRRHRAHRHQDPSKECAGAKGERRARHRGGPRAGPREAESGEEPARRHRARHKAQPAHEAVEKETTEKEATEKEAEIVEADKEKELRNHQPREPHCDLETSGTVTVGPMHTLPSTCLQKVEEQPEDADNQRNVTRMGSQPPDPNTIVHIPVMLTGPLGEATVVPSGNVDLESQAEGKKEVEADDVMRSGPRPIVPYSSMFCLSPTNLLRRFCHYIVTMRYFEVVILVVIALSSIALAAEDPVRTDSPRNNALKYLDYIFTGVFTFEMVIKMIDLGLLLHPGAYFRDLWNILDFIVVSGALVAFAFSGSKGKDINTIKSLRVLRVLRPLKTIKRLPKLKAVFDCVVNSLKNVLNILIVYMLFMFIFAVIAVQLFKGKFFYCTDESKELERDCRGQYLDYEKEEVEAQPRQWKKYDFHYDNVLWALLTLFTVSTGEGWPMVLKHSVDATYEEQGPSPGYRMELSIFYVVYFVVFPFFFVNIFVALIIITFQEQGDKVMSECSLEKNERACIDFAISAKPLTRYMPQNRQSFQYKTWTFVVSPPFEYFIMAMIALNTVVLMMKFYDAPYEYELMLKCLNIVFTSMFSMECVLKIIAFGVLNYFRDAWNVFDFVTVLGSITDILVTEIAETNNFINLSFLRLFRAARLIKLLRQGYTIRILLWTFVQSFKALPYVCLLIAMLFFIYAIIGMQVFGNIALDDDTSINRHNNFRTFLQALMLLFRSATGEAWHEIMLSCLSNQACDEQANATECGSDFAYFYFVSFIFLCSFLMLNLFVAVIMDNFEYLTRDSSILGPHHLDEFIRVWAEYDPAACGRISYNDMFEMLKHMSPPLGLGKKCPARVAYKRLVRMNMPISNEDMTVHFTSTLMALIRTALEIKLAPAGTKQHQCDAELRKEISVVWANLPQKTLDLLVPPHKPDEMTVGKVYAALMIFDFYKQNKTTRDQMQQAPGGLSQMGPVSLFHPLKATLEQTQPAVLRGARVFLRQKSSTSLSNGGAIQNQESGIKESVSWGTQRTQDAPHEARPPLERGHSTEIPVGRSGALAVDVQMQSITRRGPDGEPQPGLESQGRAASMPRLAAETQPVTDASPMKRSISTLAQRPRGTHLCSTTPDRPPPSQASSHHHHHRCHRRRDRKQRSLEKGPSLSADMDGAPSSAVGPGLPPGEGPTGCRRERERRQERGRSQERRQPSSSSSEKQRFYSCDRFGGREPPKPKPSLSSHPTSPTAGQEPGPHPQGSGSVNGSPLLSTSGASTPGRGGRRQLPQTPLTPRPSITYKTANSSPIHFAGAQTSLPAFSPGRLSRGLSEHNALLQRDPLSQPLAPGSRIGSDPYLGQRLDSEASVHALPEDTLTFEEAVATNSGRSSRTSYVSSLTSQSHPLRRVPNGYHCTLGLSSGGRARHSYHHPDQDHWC
T2 sequence (P54284 whole entry partner): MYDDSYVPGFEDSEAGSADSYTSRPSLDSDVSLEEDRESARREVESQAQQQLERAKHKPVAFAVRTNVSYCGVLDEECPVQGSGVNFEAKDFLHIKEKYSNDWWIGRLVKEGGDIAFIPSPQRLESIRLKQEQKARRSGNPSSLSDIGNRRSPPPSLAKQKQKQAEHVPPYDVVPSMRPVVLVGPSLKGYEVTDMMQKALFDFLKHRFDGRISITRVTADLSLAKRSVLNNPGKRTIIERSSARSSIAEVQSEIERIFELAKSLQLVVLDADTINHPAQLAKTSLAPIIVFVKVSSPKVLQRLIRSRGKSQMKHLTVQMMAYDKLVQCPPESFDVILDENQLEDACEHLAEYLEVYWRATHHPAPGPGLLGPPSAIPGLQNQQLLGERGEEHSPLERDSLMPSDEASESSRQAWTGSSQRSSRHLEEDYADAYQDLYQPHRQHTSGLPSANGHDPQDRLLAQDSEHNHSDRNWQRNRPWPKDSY
T2 sequence (P54289 25-956 partner limits assumed): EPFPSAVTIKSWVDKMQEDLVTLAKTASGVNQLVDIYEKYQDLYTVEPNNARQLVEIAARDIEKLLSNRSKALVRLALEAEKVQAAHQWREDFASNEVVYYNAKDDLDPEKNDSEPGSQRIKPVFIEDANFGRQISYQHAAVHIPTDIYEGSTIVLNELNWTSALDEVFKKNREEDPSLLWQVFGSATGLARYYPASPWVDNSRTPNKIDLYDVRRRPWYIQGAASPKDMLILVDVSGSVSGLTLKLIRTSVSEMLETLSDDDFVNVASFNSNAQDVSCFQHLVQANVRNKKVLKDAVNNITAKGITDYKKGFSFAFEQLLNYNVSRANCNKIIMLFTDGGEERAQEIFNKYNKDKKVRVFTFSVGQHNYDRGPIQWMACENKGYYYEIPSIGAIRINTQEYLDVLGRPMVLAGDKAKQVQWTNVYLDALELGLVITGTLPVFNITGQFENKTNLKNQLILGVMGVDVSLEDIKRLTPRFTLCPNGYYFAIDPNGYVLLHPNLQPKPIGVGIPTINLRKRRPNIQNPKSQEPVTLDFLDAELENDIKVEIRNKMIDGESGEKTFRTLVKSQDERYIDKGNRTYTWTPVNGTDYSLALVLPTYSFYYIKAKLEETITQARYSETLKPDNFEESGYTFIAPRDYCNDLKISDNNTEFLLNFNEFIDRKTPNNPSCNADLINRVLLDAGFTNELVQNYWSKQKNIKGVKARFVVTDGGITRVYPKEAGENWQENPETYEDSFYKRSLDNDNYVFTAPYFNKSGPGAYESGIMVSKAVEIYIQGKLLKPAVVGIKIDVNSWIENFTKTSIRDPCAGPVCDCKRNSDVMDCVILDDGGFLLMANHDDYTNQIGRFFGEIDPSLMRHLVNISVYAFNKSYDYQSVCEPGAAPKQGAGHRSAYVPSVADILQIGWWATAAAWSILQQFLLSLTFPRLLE
T2 sequence (P54289 957-1103 partner limits assumed): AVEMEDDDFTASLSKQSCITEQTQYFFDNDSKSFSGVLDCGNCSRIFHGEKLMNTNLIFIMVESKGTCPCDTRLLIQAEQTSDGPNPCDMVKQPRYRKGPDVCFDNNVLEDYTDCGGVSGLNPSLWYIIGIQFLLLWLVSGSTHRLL
Procedure: Unless noted otherwise, cell culture reagents were purchased from Life Technologies of Rockville, Md. IMR32 cells (American Type Culture Collection, ATCC, Manassas, Va.) were routinely cultured in growth medium consisting of minimum essential medium containing 10% fetal bovine serum (FBS, Hyclone, Logan, Utah), 100 U/mL penicillin, 100 μg/mL streptomycin, 2 mM L-glutamine, 1 mM sodium pyruvate, and 1×MEM non-essential amino acids. 80-90% confluent flasks of cells were differentiated using the following differentiation medium: Growth medium plus 1 mM dibutyryl cyclic AMP (Sigma, St. Louis, Mo.), and 2.5 μM bromodeoxyuridine (Sigma). Cells were differentiated for 8 days by replacing differentiation medium every 2-3 days.
One day prior to performing this assay, differentiated IMR32 cells were treated with 1× CellStripper, and seeded on poly-D-lysine-coated 96-well clear-bottom black plates (Becton Dickinson, Franklin Lakes, N.J.) at 200,000 cells/well. On the day of the assay, the cell plates were washed with IMR32 buffer (127 mM NaCl, 1 mM KCl, 2 mM MgCl2, 700 μM NaH2PO4, 5 mM CaCl2, 5 mM NaHCO3, 8 mM HEPES, 10 mM glucose, pH 7.4), then pre-stimulated with KCl and loaded as follows: 0.05 mL of IMR32 buffer, 0.05 mL of each compound tested diluted in IMR32 buffer containing 20 μM nitrendipine (Sigma), and 0.1 mL KCl dissolved in IMR32 buffer, plus Fluo-4 were added (3 μM final concentration, Molecular Probes, Eugene, Oreg.). Final test compound concentrations ranged from about 846 pM to about 17 μM, final nitrendipine concentration was 5 μM, and final KCl concentration was 90 mM. After 1 hour, the cells were washed twice with 0.05 mL of each compound tested in nitrendipine-containing IMR32 buffer (no KCl or Fluo-4), and then replaced with 0.1 mL of each compound tested in nitrendipine-containing IMR32 buffer. Plates were then transferred to a Fluorimetric Imaging Plate Reader (FLIPR^96, Molecular Devices, Inc., Sunnyvale, Calif.) for assay. The FLIPR measured basal Fluo-4 fluorescence for 315 seconds (i.e., 5 minutes and 15 seconds), then added 0.1 mL KCl agonist dissolved in IMR32 buffer and measured fluorescence for another 45 seconds. Final test compound concentrations on the cells after FLIPR read ranged from about 846 pM to about 17 μM, final nitrendipine concentration was 5 μM, and final KCl concentration was 90 mM. Data were collected over the entire time course and analyzed using Excel, Graph Pad Prism (version 3.02, Graph Pad, San Diego, Calif.), or Activity Base (version 5.1, IDBS, Parsippany, N.J.) software.
N-type calcium channel expressing HEK-293 cells were created in two stages. Stage 1 was created as follows. The rat α1b, and β3 cDNA expression constructs (2.5 μg each) were co-transfected into human embryonic kidney (HEK-293) cells by Lipofectamine Plus reagent (Invitrogen), as per manufacturer's instructions. 24 hours later, cells were split in limiting dilution into multiple 96-well plates in selection media containing 20 μg/mL blasticidin and 500 μg/mL geneticin, and incubated for 3 weeks at 37° C., 5% CO2, 95% humidity. Plates containing ≦1 clone per well were cultured until wells positive for single clones were confluent. Individual clones were then arrayed into columns of a destination 96-well plate, and partly split into 6-well plates for culture maintenance. Array plates were washed once with IMR32 buffer and cells loaded for 1 hour with 0.1 mL of IMR32 buffer containing Fluo-4 (3 μM final concentration, Molecular Probes). Then they were washed twice with 0.1 mL of IMR32 buffer, and replaced with 0.1 mL IMR32 buffer. Plates were then transferred to a FLIPR^96 for assay. The FLIPR measured basal Fluo-4 fluorescence for 315 seconds, then added 0.1 mL KCl agonist dissolved in IMR32 buffer and measured fluorescence for another 45 seconds. Final KCl concentration was 90 mM. Data were collected over the entire time course and analyzed using Excel, Graph Pad Prism, or Activity Base software. […]

CNC(Cc1ccccc1C)C(=O)N1CCC(N(C2CC2)S(=O)(=O)c2cccc(C(F)(F)F)c2)CC1 (stereo not drawn) [N-Cyclopropyl-N-[1-(2-methylamino-3-o-tolylpropionyl)piperidin-4-yl]-3-trifluoromethylbenzenesulfonamide]
IC50 [1]: 10000 to 20000 nM | IC50 [2]: 390 nM

CN[C@@H](CC(C)C)C(=O)N1CCC(N(C2CC2)S(=O)(=O)c2cccc(OC(F)F)c2)CC1 [(2S) N-Cyclopropyl-N-[1-(4-methyl-2-methylaminopentanoyl)-piperidin-4-yl]-3-difluoromethoxybenzenesulfonamide]
IC50 [2]: 2440 nM

CN[C@@H](CC(C)C)C(=O)N1CCC(N(C2CC2)S(=O)(=O)c2cccc(Cl)c2)CC1 [(2S) N-cyclopropyl-N-[1-(4-methyl-2-methylaminopentanoyl)-piperidin-4-yl]-3-chlorobenzenesulfonamide]
IC50 [2]: 2630 nM

CN[C@@H](CC(C)C)C(=O)N1CCC(N(C2CC2)S(=O)(=O)c2cccc([N+](=O)[O-])c2)CC1 [(2S) N-cyclopropyl-N-[1-(4-methyl-2-methylaminopentanoyl)-piperidin-4-yl]-3-nitrobenzenesulfonamide]
IC50 [2]: 3620 nM

CN[C@@H](CC(C)C)C(=O)N1CCC(N(C2CCOC2)S(=O)(=O)c2cccc(C(F)(F)F)c2)CC1 (stereo partly drawn) [(2S) N-[1-(4-Methyl-2-methylaminopentanoyl)piperidin-4-yl]-N-(tetrahydrofuran-3-yl)-3-trifluoromethylbenzenesulfonamide fumarate]
IC50 [2]: 1840 nM

CN[C@@H](CC(C)C)C(=O)N1CCC(N(C2CC2)S(=O)(=O)c2cccc(C)c2)CC1 [(2S) N-cyclopropyl-N-[1-(4-methyl-2-methylaminopentanoyl)-piperidin-4-yl]-3-methylbenzenesulfonamide]
IC50 [2]: 8290 nM

NC1(C(=O)N2CCC(N(C3CC3)S(=O)(=O)c3cccc(C(F)(F)F)c3)CC2)CCCC1 [N-[1-(1-Aminocyclopentan-1-carbonyl)piperidin-4-yl]-N-cyclopropyl-3-trifluoromethylbenzenesulfonamide]
IC50 [2]: 1080 nM

CN[C@@H](CC(C)C)C(=O)N1CCC(N(C2CC2)S(=O)(=O)c2cccc(F)c2)CC1 [(2S) N-cyclopropyl-N-[1-(4-methyl-2-methylaminopentanoyl)-piperidin-4-yl]-3-fluorobenzenesulfonamide]
IC50 [2]: 4660 nM

CN[C@@H](CC(C)C)C(=O)N1CCC(N(C2CC2)S(=O)(=O)c2cccc(C#N)c2)CC1 [(2S) N-cyclopropyl-N-[1-(4-methyl-2-methylaminopentanoyl)-piperidin-4-yl]-3-cyanobenzenesulfonamide]
IC50 [2]: 4270 nM

CN[C@@H](CC(C)C)C(=O)N1CCC(N(CC2CC2)S(=O)(=O)c2cccc(C(F)(F)F)c2)CC1 [(2S) N-Cyclopropylmethyl-N-[1-(4-methyl-2-methylamino-pentanoyl)piperidin-4-yl]-3-trifluoromethylbenzenesulfonamide fumarate]
IC50 [2]: 1310 nM

O=C(CCC(=O)N1CCC(N(C2CC2)S(=O)(=O)c2ccccc2)CC1)c1ccc(F)cc1 [N-cyclopropyl-N-{1-[4-(4-fluorophenyl)-4-oxobutanoyl]piperidin-4-yl}benzenesulfonamide]
IC50 [2]: 6210 nM

O=C(C1Cc2ccccc2CN1)N1CCC(N(C2CC2)S(=O)(=O)c2cccc(C(F)(F)F)c2)CC1 (stereo not drawn) [N-Cyclopropyl-N-[1-(1,2,3,4-tetrahydroisoquinolin-3-carbonyl)piperidin-4-yl]-3-trifluoromethylbenzenesulfonamide]
IC50 [2]: 1580 nM

CN[C@@H](CC(C)C)C(=O)N1CCC(N(C2CCCC2)S(=O)(=O)c2cccc(C(F)(F)F)c2)CC1 [(2S) N-Cyclopentyl-N-[1-(4-methyl-2-methylamino-pentanoyl)piperidin-4-yl]-3-trifluoromethylbenzenesulfonamide fumarate]
IC50 [2]: 1560 nM

CN1CCCC1C(=O)N1CCC(N(C2CC2)S(=O)(=O)c2cccc(C(F)(F)F)c2)CC1 (stereo not drawn) [N-Cyclopropyl-N-[1-(N-methylpyrrolidin-2-carbonyl)piperidin-4-yl]-3-trifluoromethylbenzenesulfonamide]
IC50 [2]: 1380 nM

CN[C@@H](CC(C)C)C(=O)N1CCC(N(CCC(C)C)S(=O)(=O)c2cccc(C(F)(F)F)c2)CC1 [(2S) N-i-pentyl-N-[1-(4-methyl-2-methylaminopentanoyl)piperidin-4-yl]-3-trifluoromethylbenzenesulfonamide]
IC50 [2]: 1260 nM

CN[C@@H](CC(C)C)C(=O)N1CCC(N(C[C@@H]2CCCO2)S(=O)(=O)c2cccc(C(F)(F)F)c2)CC1 [(2S) N-[1-(4-methyl-2-methylaminopentanoyl)piperidin-4-yl]-N-(tetrahydrofuran-2-yl)methyl-3-trifluoromethylbenzenesulfonamide]
IC50 [2]: 5060 nM

CN[C@@H](CC(C)C)C(=O)N1CCC(N(CCOC)S(=O)(=O)c2cccc(C(F)(F)F)c2)CC1 [(2S) N-(2-methoxyethyl)-N-[1-(4-methyl-2-methylaminopentanoyl)-piperidin-4-yl]-3-trifluoromethylbenzenesulfonamide]
IC50 [2]: 1220 nM

CN[C@@H](CC(C)C)C(=O)N1CCC(N(C2CC2)S(=O)(=O)c2cccc(OC)c2)CC1 [(2S) N-cyclopropyl-N-[1-(4-methyl-2-methylaminopentanoyl)-piperidin-4-yl]-3-methoxybenzenesulfonamide]
IC50 [2]: 7290 nM

CCCC=CC(=O)N1CCC(N(C2CC2)S(=O)(=O)c2cccc(C(F)(F)F)c2)CC1 [N-Cyclopropyl-N-(1-hex-2-enoyl-piperidin-4-yl)-3-trifluoromethylbenzenesulfonamide]
IC50 [2]: 1210 nM

CN[C@@H](CC(C)C)C(=O)N1CCC(N(CCO)S(=O)(=O)c2cccc(C(F)(F)F)c2)CC1 [(2S) N-(2-Hydroxyethyl)-N-[1-(4-methyl-2-methylamino-pentanoyl)piperidin-4-yl]-3-trifluoromethylbenzenesulfonamide hydrochloride]
IC50 [2]: 2230 nM
